Paper PMC6968640, “Development of potent reversible selective inhibitors of butyrylcholinesterase as fluorescent probes” (Journal of Enzyme Inhibition and Medicinal Chemistry, 2020)
Values joined by “and” are separate entries in the source; they are usually repeats but may differ in a detail not shown here. Identical values can stand only once. “Also recorded” adds a separate entry of the source. Like-named read-outs stand apart in the source and are kept apart here.

Legend:
hBChE [1] = target: T1, hBChE (Homo sapiens, UniProt P06276); test: Inhibition of huBChE, method of Ellman; type: biochemical; settings: for IC50: 500 µM butyrylthiocholine iodide, 1 nM enzyme, pH 8.0, room temperature; for remaining activity at 100 µM: compound at 100 µM, read-out: huBChE residual activity (RA)
T1 sequence (P06276 29-602): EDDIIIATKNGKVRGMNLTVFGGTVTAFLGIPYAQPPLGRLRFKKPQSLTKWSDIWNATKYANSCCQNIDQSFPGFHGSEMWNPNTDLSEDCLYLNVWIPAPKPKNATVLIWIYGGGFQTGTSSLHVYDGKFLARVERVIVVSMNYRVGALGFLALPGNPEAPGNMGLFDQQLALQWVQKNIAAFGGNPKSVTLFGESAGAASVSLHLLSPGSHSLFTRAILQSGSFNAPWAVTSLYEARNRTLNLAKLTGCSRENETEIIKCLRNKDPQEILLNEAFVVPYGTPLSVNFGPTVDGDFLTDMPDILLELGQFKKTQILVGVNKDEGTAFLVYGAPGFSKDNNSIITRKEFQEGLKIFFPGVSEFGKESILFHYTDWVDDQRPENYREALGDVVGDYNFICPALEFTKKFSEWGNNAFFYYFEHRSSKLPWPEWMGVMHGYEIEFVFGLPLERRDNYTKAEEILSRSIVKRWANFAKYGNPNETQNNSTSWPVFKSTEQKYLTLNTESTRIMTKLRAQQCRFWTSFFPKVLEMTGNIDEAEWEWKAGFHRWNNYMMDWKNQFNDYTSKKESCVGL
Experimental: (§1) The inhibitory potencies of these probes against cholinesterases (i.e. huAChE, murine AChE [mAChE] and huBChE) were determined using the method of Ellman[18], as previously described. The assays were carried out at room temperature in 100 mM phosphate buffer, pH 8.0, containing 333 µM Ellman reagent (5,5′-dithiobis(2-nitrobenzoic acid); DTNB), 500 µM substrate (huAChE/mAChE: acetylthiocholine; huBChE: butyrylthiocholine iodide [BSCh]) and huAChE/mAChE or huBChE (50 pM, 1 nM, respectively). […] Formation of the yellow product was followed for 1 min as the change in the absorbance at 412 nm, using a microplate reader (Synerg H4; BioTek Instruments, Inc., USA). For screening for inhibitory activities, the compounds were assayed at 100 µM, in triplicate. The initial velocities in the absence (v0) and presence (vi) of the test compounds were calculated. […].
(§2) For the IC50 measurements, serial dilutions were prepared for the compounds with RAs <50% at 100 µM. The IC50 values were calculated by plotting the RAs against the compound concentration according to a four-parameter logistic function, using the GraphPad Prism 8 software (GraphPad Software, USA). All of the measurements were repeated twice, each of which was in triplicate.

mAChE = mAChE (Mus musculus, UniProt P21836); test: Inhibition of mAChE, method of Ellman; type: biochemical; settings: compound at 100 µM; read-out: mAChE residual activity (RA)
Chain of mAChE (P21836 32-614): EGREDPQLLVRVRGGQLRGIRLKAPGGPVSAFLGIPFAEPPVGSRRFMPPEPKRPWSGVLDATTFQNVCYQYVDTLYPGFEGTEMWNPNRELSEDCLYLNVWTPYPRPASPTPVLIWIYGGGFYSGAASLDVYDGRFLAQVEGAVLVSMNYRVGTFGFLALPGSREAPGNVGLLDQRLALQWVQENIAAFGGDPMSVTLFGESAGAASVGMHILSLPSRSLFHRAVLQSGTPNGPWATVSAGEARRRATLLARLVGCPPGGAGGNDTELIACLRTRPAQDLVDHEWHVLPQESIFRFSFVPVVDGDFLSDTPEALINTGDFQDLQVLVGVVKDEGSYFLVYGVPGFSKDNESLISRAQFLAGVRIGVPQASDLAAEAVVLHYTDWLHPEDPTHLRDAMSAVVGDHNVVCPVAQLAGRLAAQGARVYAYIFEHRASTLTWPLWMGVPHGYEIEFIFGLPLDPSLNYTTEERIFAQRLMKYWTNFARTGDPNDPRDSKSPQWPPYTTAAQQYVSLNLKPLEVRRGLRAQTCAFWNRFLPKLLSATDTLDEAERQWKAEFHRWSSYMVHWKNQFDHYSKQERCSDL
Experimental: as §1, §2

huAChE = huAChE (Homo sapiens, UniProt P22303); test: Inhibition of huAChE, method of Ellman; type: biochemical; settings: compound at 100 µM; read-out: huAChE residual activity (RA)
Chain of huAChE (P22303 32-614): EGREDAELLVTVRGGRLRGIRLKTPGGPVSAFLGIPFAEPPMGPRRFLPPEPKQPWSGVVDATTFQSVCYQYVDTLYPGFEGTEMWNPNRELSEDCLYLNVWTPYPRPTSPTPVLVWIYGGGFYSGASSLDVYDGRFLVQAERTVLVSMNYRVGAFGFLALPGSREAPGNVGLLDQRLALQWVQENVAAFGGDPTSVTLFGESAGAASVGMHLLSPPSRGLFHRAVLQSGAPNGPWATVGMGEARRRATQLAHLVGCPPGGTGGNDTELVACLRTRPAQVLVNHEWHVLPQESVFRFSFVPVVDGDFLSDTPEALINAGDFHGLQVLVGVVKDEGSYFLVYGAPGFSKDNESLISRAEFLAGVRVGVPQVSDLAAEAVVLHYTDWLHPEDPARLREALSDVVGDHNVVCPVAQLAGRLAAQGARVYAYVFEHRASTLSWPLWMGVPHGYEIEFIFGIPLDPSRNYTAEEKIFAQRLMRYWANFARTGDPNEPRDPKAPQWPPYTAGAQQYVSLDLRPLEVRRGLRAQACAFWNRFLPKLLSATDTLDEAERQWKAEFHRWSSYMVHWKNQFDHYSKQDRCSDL
Experimental: as §1, §2

purified huBChE = target: T2, purified huBChE (Homo sapiens, UniProt P06276); test: Kinetic studies: progress curves of BSCh hydrolysis by purified huBChE; type: biochemical; settings: 25 °C, 25 mM phosphate buffer pH 7.0, about 50 µM BSCh
T2 construct: gift from Drs; O. Lockridge and L. Schopfer
T2 sequence (P06276 29-602): as the sequence (P06276 29-602) above
Experimental: Purified huBChE was a generous gift from Drs. O. Lockridge and L. Schopfer. DTNB and BSCh were from Sigma. All other reagents used were of analytical grade. The experiments were carried out at 25 °C in 25 mM phosphate buffer, pH 7.0.
Three compounds (2C, 3A, 3B) were tested by measuring the progress curves for BSCh hydrolysis by huBChE in the absence and presence of each of these compounds at five to seven concentrations. Assays were carried out over 10 min, in a 0.6-ml cuvette, using the method of Ellman et al[18]. The compound concentrations used were: 2C, 0–1 µM; 3A, 0–200 µM; and 3B, 0–50 nM.
The concentration of purified huBChE, which was always the final addition to these assays, was ∼0.5 nM. The hydrolysis of 50 µM BSCh was followed until completion (in most cases), in the presence of 1 mM DTNB. Reaching the plateau was important to get a precise estimate of the actual added BSCh concentration. For the calculation, the molar absorption coefficient of […] was used. All of the measurements were performed using a conventional UV/Vis spectrophotometer (Lambda45; Perkin-Elmer). Due to the experimental manipulation, a dead time of 10 s was added to each measurement, and all progress curves were extrapolated accordingly prior to the analysis.
. This programme is designed to generate differential equations from drawn reaction schemes and subsequently to fit the coefficients of these equations according to least squares methodology to reproduce the experimental data using a numerical integration algorithm. For determination of the kinetics mechanisms and parameters, the van Slyke-Cullen single intermediate reaction scheme[23] for substrate hydrolysis by huBChE was combined with a reversible mixed inhibition mechanism (Figure 1). […]
Figure 1. Reaction scheme for the inhibition of BSCh hydrolysis by purified huBChE in the presence of DTNB by compounds 2C, 3A, and 3B. E, free enzyme; EA, acylated intermediate; S, substrate BSCh; P, all of the stoichiometrically released products (SCh-TNB, TNB^–); and I, compounds (inhibitors) 2C, 3A, and 3B. The symbols for the constants are: kcat (k1), catalytic constant for BSCh turnover; Km (k0), Michaelis constant; Kp = k3/k2, inhibition constant for binding of the product thiocholine-TNB; K1 = k5/k4 and K2 = k7/k6, dissociation constants for binding of the compounds to the free and acylated enzyme, respectively.

[2] = Solubility in aqueous buffers; type: physicochemical
BChE in rat brain slices = target: T3, BChE in rat brain slices (Rattus norvegicus, UniProt Q9JKC1); settings: rat brain cryosections, AChE blocked with 0.1 mM BW-284C51
T3 construct: coronal cryosections (10 μm) of a rat brain; from tissue; host or cells: rat brain coronal cryosections at the level of the thalamus
T3 sequence (Q9JKC1 24-597): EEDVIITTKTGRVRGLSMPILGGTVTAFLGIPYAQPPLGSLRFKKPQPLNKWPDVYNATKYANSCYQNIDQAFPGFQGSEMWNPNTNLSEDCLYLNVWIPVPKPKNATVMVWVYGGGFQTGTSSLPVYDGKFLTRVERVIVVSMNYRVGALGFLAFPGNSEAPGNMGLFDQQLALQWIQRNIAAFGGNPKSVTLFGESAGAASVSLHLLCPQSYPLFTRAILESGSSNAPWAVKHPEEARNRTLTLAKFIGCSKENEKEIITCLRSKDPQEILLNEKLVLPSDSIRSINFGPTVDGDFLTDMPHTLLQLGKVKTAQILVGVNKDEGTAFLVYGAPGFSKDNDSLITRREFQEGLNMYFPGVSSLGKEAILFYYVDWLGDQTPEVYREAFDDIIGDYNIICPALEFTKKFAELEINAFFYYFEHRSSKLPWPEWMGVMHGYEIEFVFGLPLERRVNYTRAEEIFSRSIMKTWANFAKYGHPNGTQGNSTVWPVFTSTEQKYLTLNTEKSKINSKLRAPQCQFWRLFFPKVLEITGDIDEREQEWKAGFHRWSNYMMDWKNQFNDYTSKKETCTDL
Experimental: Sections of rat brain with the highest BChE activity were selected and the modified Koelle − Karnovsky histochemical method was used to detect BChE activity[16]^,[40–42].
Histochemical staining for BChE activity of coronal cryosections (10 μm) of a rat brain from two regions (top/bottom row) at the level of the thalamus. All sections were processed with 0.1 mM BW-284C51 in Koelle solution, to completely block AChE activity. […] The relative optical density (ROD) pseudocolor scale for staining intensity of BChE activity is on the right.
BChE activity histochemical staining of coronal cryosections (10 μm) of a rat brain from
two regions at the level of the thalamus. All sections were processed with 0.1 mM BW-284C51 in
Koelle solution to completely block the AChE activity (A, B). For the inhibition experiment, the
relative optical density (ROD) pseudocolor scale for the staining intensity of BChE activity is shown
on the right. The photomicrographs show BChE -rich neurons in the laterodorsal thalamic nucleus

hBChE [3] = target: T1, hBChE; test: Fluorescence titration of hBChE with probe 2C; settings: in duplicate, fitted to sum of hyperbolic and linear equation; read-out: binding constant from fluorescence titration
Experimental: 4. Titration of hBChE with probe 2C
Figure S2. The fluorescence titration data, in duplicate, were simultaneously fitted to the sum of hyperbolic and linear equation. The determined binding constant for probe 2C was 5.5 +/- 1.6 nM, remarkably similar to the inhibition constant for the binding to the free enzyme (3.3 nM, see Table 1 in […]
(1 picture or pasted object on this page, not shown here)

hBChE [4] = target: T1, hBChE; test: Fluorescence emission of probes on binding to huBChE; settings: probe 1 μM, huBChE 500 nM, buffer
Excerpt: The fluorescence properties of probes 2C and 3B were then examined when they were bound to huBChE. […] This mirrored the differences in the emission of probe 2C between the buffer solution and the organic solvents (Figure 6(B)). […]. Most probably this is due to unspecific binding to protein surface and titration study (see Supplemental material) confirms this. Future development of probe 2C should thus be orientated towards lowering the lipophilicity, which should, in turn, reduce unspecific binding.
Figure 7. […]

[5] = read-out: K1, dissociation constant for binding to the free enzyme
[6] = read-out: K2, dissociation constant for binding to the acylated enzyme

Compound	huBChE inhibition (in words) (hBChE [1])	IC50 (hBChE [1])	remaining activity at 100 µM (mAChE)	remaining activity at 100 µM (huAChE)	Ki (purified huBChE; [5])	Ki (purified huBChE; [6])	solubility in aqueous buffers (in words) [2]	concentration needed to achieve substantial inhibition of BChE (BChE in rat brain slices)	Kd (hBChE [3])	enhancement of fluorescence intensity on addition of huBChE (hBChE [4])	remaining activity at 100 µM (hBChE [1])
O=[N+]([O-])c1ccc(N2CCN(Cc3cn(CCOCCN(CC4CCCN(Cc5ccccc5)C4)S(=O)(=O)c4ccc5ccccc5c4)nn3)CC2)c2nonc12 (stereo not drawn) [3D]	substantial loss of inhibitory activity	214 nM	100%	98%							
CCN(CC)c1ccc2cc(C(=O)NCCOCCOCCN(CC3CCCN(Cc4ccccc4)C3)S(=O)(=O)c3ccc4ccccc4c3)c(=O)oc2c1 (stereo not drawn) [3A]		60 nM	93%	94%	63 ± 0.5 nM	296 ± 2 nM	poor solubility in aqueous buffers; also recorded: low solubility				
CCN(CC)c1ccc2cc(-c3nc(CN4CCCC(CN(CCN(C)C)C(=O)c5ccc6ccccc6c5)C4)cs3)c(=O)oc2c1 (stereo not drawn) [2C]		88 nM	70%	> 74%	3.3 nM and 3.27 nM	42.7 ± 1.5 nM	sufficient aqueous solubility	1 mM	5.5 ± 1.6 nM	approximately two-fold	
CN(C)CCNC(=O)c1cc2ccc(N(C)C)cc2oc1=O [2A]	very low and unselective inhibition of BChE			18%							57%
CCN(CC)c1ccc2cc(C(=O)N(CCOC)CC3CCCN(Cc4ccccc4)C3)c(=O)oc2c1 (stereo not drawn) [1A]			92%	89%							
[N-]=[N+]=NCCOCCN(CC1CCCN(Cc2ccccc2)C1)S(=O)(=O)c1ccc2ccccc2c1 (stereo not drawn) [3C]	retained good inhibitory activity	19 nM	94%	84%							
CN(C)c1ccc2cc(C(=O)NCC[N+](C)(C)C)c(=O)oc2c1 [2B]	very low and unselective inhibition of BChE			25%							54%
O=[N+]([O-])c1ccc(N2CCN(CCN(CC3CCCN(Cc4ccccc4)C3)S(=O)(=O)c3ccc4ccccc4c3)CC2)c2nonc12 (stereo not drawn) [3B]		18 nM	97%	57%	4.63 ± 0.02 nM	96.6 ± 2 nM	improved solubility in aqueous solutions compared to 3A; also recorded: sufficient aqueous solubility	1 mM		only marginally increased	
